Assay results published in US8134010B2, “Thiazole-based nitric oxide donors having aryl substituent(s) and uses thereof” (priority 2004, dated 2012).
Entries after “also recorded” stand apart in the source; their conditions may differ.

What was measured:
[1] = system: c-GMP in slices of thoracic aorta of rats; assay: Cyclic-GMP measurement in aortic rat tissue (radioimmunoassay); format: cell-based; conditions: for accumulation of cyclic-GMP as compared with GTN: isolated rat aorta, radioimmunoassay; for cGMP Post-infusion: post-infusion (repeated treatment)
Method: GTN (10^−6 M) was added to the chamber and, 1 minute after exposure to the drug, rings (usually 3-5) were taken, wrapped with aluminum foil and immediately frozen in liquid nitrogen for storage. Control sample group was treated with the vehicle solution only. At the time of analysis, rings were thawed, blotted over a dry gauzed and weighted. A known weight of tissue was homogenized in 2 ml ice-cold modified Hank's balanced salt solution containing (in gram/liter) NaCl 8; KCl 0.4; glucose 1; KH2PO4 0.06; Na2HPO4 0.047; Phenol red 0.017 and further containing 25 mM EDTA (disodium salt). The homogenate was centrifuged at 4000 g (force units) for 10 minutes at 2-4° C. and the supernatant was thereafter transferred into fresh pre-cooled test tube containing 1 ml of acetonitrile. The tubes were vortex mixed for a few seconds and subsequently centrifuged at 4000 g for 5 minutes at 2-4° C., to remove the precipitated protein. Each supernatant was transferred into a clean test tube and evaporated to dryness under a stream of nitrogen at 55° C. The dry residue was reconstituted with 10 volumes of Tris-EDTA buffer pH 7.5 (0.05 M Tris containing 4 mM EDTA). Aliquots of 100 μl of the reconstituted solution in duplicate were used for c-GMP measurements using Amersham RIA kit, as is described in Haj-Yehia & Benet [Pharmacology, 1995, 273, 1, pp. 94-100]. Standard curves were plotted with six concentrations (0, 0.5, 1, 2, 4 and 8 pmoles of c-GMP per tube).
The NO-tolerance effect of GTN and NO-donor compounds according to the present invention was measured by following the production of c-GMP in slices of thoracic aorta of rats. Thus, the production of c-GMP was measured as described in the methods section above for the reference NO-donor compound GTN, and for the NO-donors of the present invention Pet-2, Pet-3, Pet-7, Pet-8, Pet-10, Pet-12, Pet-24, Pet-59, Pet-106, Pet-107, Pet-120, Pet-147, Pet-149, Pet-152, Pet-154 and Pet-155.

[2] = system: isolated rat aorta; assay: In vitro induction of tolerance to NO releasing compounds (vasorelaxation of pre-exposed aortic rings); format: cell-based; conditions: rings pre-treated with epinephrine and then with 0.44 mM of the same compound
Method: Aortic rings were prepared as described hereinabove, and were exposed to 0.44 mM GTN (vehicle was water:ethanol:propyleneglycol at proportional ratio of 1:1:1) for 1 hour before CCRC construction, to thereby induce tolerance to nitroglycerine. At the end of the tolerance induction period, rings were thrice washed with the path buffer (Krebs-bicrbonate) every 15 minutes for the following hour and then CCRC for vasorelaxation on GTN-induced tolerance rings were constructed for GTN (pretreated versus untreated rings, FIG. 15), in order to verify the ability to induce and measure GTN tolerance induction in vitro
Attempted induction of tolerance to the NO-donating compounds of the present invention was performed under the same conditions as for GTN. Thus, in an exemplary experiment, rings were exposed to 0.44 mM solution of Pet-3 in the attempt to induce tolerance for Pet-3. CCRC were then measured for the vasorelaxing effect of Pet-3 on a group of rings which were pre-exposed to Pet-3 as to induce tolerance to Pet-3, and for an untreated control group. The above protocol was repeated with Pet-2, Pet-7, Pet-8, Pet-12, Pet-24, Pet-43, Pet-149 and Pet-152.

[3] = system: cyclic-GMP in isolated aorta of rats; assay: Induction of in vivo nitrate tolerance (cGMP in isolated aorta of rats pre-treated in vivo); design: species or system rat; conditions: rats pre-treated in vivo with the same compound
Method: For c-GMP levels and tolerance development, the rat's thoracic aorta was isolated after exposure to the tested compound in vivo, and measured as described above in the in vitro assays.
Male Sprague Dawley rats (220 to 250 grams) were housed under constant temperature and humidity conditions. Light was maintained at a 12/12 light dark cycle. Except for 12 hours before the experiment, when food fasting was initiated, all rats had free access to standard rat pellet diet and tap water. The animals were anesthetized by intraperitoneal injection of ketamine and xylazine combination (50 and 10 milligram per kilogram, respectively). […] The catheters were filled with normal saline solution containing 1000 IU/ml of heparin and plugged with a metal pin. Catheters were externalized to the back of the neck region and secured by a polyester felt disk.
After implantation, the rats were individually housed until they regained their preoperative weight and appeared healthy (3 to 4 days post-operation). At this time point (day 0), an osmotic mini-pump (Alza Corp., Palo Alto, Calif.) delivering constant volume (10 μl/hour) of vehicle or drug was connected to one of the intravenous catheters.
For inducing tolerance to the tested NO-donor according to the present invention, the animals received 200 μg/hour of the tested compound for 16 hours (short-term-induced tolerance). A similar number of animals were processed by the same surgical procedure and received the vehicle alone (10 μl/hour of a solution consisting of 30% ethanol and 30% propylene glycol in sterile distilled water for injection).
At the end of the infusion periods used for the development of tolerance (16 hour), the rats were anesthetized as described above, the two catheters were externalized and the delivering catheters were disconnected from the mini-pump. The abdomen was opened by midline incision and the thoracic aorta were isolated, washed and cleaned from the surrounding tissues. […]

[4] = system: hypertensive Sprague-Dawley male rats; assay: Hypotensive effects: mean arterial pressure during intravenous bolus doses; format: in vivo, rat; conditions: for activity as hypotensive agents (MAP): rats given phenylephrine
Method: Mean arterial pressure (MAP) was monitored and determined during bolus infusion of Pet-2, Pet-3, Pet-7, Pet-8, Pet-12 and Pet-13. Briefly, polyethylene catheters (PE50) were inserted into the carotid artery and into the jugular vein of anesthetized hypertensive Sprague-Dawley male rats (200-300 grams). A blood pressure recorder was placed within the carotid artery. Phenylephrine (0.1 mg) was then injected and the mean arterial blood pressure (MABP) was monitored continuously until a stable baseline was reached. The hypotensive effects of intravenous (iv) bolus doses (0.1 mg of each tested compound) administered intravenously at the jugular vein in minimal volume of vehicle (0.2 ml per dose) were evaluated. Five minutes were allowed between each dose, during which the maximal decrease in MAP was recorded and a dose-response graph comparing the hypotensive effect of the compounds was constructed.

[5] = system: isolated rat aorta; assay: Cross-tolerance studies on aortic rings (GTN / Pet-12 pre-treatment); format: cell-based
Method: Cross-tolerance studies were conducted using the same technique described above for measuring vasorelaxation of aortic rings from rats. Two groups of aortic rings samples were pre-treated with GTN, then one group was measured for vasorelaxation by GTN and the second group for vasorelaxation by Pet-12, an exemplary NO-donor according to the present invention. For the opposite cross-tolerance studies, two groups of aortic rings samples were pre-treated with Pet-12, then one group was measured for vasorelaxation by GTN and the second group for vasorelaxation by Pet-12.

CNc1cncc(-c2nc(C)c(CCO[N+](=O)[O-])s2)n1 [Pet-24, Methyl-{6-[4-methyl-5-(2-nitrooxy-ethyl)-thiazol-2-yl]-pyrazin-2-yl}-amine]
accumulation of cyclic-GMP as compared with GTN [1]: increased levels of cGMP
tolerance induction in vitro (vasorelaxation, pre-treated versus control rings) [2]: absence of tolerance induction

O=[N+]([O-])OCC(CO[N+](=O)[O-])O[N+](=O)[O-] [GTN, glyceryl trinitrate, reference compound]
c-GMP level following a repeated treatment ([1]; rat thoracic aorta): significantly reduced
tolerance induction in vitro (vasorelaxation, pre-treated versus control rings) [2]: tolerance inducement caused by treatment with GTN; also recorded: causing the emergence of tolerance; also recorded: tolerance induced by treatment with GTN
tolerance induction by cyclic-GMP accumulation in aorta of rats pre-treated in vivo [3]: tolerance inducing effect; also recorded: decreased
hypotensive effect on MAP following successive administrations ([4]; successive doses): attenuation in its effect on MAP

Cc1nc(-c2cccnc2)sc1CCO[N+](=O)[O-] [Pet-12, 3-[4-Methyl-5-(2-nitrooxy-ethyl)-thiazole-2-yl]-pyridine]
vasorelaxation in rings made tolerant to GTN (cross-tolerance) ([5]; aorta pre-treated with GTN): has no effect on the vasorelaxation capacity of Pet-12; also recorded: absence of tolerance induction effect
tolerance induction in rings pre-treated with Pet-12 (cross-tolerance) ([5]; aorta pre-treated with Pet-12, vasorelaxation by Pet-12 and GTN): does not evoke tolerance to itself not to GTN; also recorded: absence of tolerance induction effect
tolerance induction in vitro (vasorelaxation, pre-treated versus control rings) [2]: absence of tolerance induction
tolerance induction by cyclic-GMP accumulation in aorta of rats pre-treated in vivo [3]: lack of tolerance induction; also recorded: absence of tolerance induction
activity as hypotensive agents (MAP) [4]: high activity

CC(=O)Nc1ccc(-c2nc(C)c(CCO[N+](=O)[O-])s2)cc1 [Pet-107, N-{4-[4-Methyl-5-(2-nitrooxy-ethyl)-thiazol-2-yl]-phenyl}-acetamide]
accumulation of cyclic-GMP as compared with GTN [1]: increased levels of cGMP
cGMP Post-infusion ([1]; rat thoracic aorta): 125 ± 10 pmol/g tissue
tolerance induction in vitro (vasorelaxation, pre-treated versus control rings) [2]: absence of tolerance induction

Cc1nc(-c2ccc(N)cc2)sc1CCO[N+](=O)[O-] [Pet-106, 4-[4-Methyl-5-(2-nitrooxy-ethyl)-thiazol-2-yl]-phenylamine]
accumulation of cyclic-GMP as compared with GTN [1]: increased levels of cGMP
cGMP Post-infusion ([1]; rat thoracic aorta): 120 ± 12 pmol/g tissue
tolerance induction in vitro (vasorelaxation, pre-treated versus control rings) [2]: absence of tolerance induction

Cc1nc(NC(=O)[C@@H](C)c2ccc(CC(C)C)cc2)sc1CCO[N+](=O)[O-] (stereo in doubt) [Pet-152, 2-(4-Isobutyl-phenyl)-N-[4-methyl-5-(2-nitrooxy-ethyl)-thiazol-2-yl]-propionamide]
accumulation of cyclic-GMP as compared with GTN [1]: increased levels of cGMP

Cc1nc(-c2ccc(C(F)(F)F)cc2)sc1CCO[N+](=O)[O-] [Pet-59, 4-Methyl-5-(2-nitrooxy-ethyl)-2-(4-trifluoromethyl-phenyl)-thiazole]
accumulation of cyclic-GMP as compared with GTN [1]: increased levels of cGMP

Cc1nc(NC(=O)c2cccnc2)sc1CCO[N+](=O)[O-] [Pet-154, N-[4-methyl-5-(2-nitrooxy-ethyl)-thiazol-2-yl]-nicotinamide]
accumulation of cyclic-GMP as compared with GTN [1]: increased levels of cGMP

Cc1nc(-c2ccccc2)sc1CCO[N+](=O)[O-] [Pet-8, 4-Methyl-5-(2-nitrooxy-ethyl)-2-phenyl-thiazole]
accumulation of cyclic-GMP as compared with GTN [1]: increased levels of cGMP
activity as hypotensive agents (MAP) [4]: high activity

C=CCNc1nc(C)c(CCO[N+](=O)[O-])s1 [Pet-155, allyl-[4-methyl-5-(2-nitrooxy-ethyl)-thiazol-2-yl]-amine]
accumulation of cyclic-GMP as compared with GTN [1]: increased levels of cGMP

Cc1nc(Nc2cccc3ccccc23)sc1CCO[N+](=O)[O-] [Pet-149, [4-Methyl-5-(2-nitrooxy-ethyl)-thiazol-2-yl]-naphthalen-1-yl-amine]
accumulation of cyclic-GMP as compared with GTN [1]: increased levels of cGMP
tolerance induction in vitro (vasorelaxation, pre-treated versus control rings) [2]: absence of tolerance induction

Cc1nc(C)c(CCO[N+](=O)[O-])s1 [Pet-3, 2,4-Dimethyl-5-(2-nitrooxy-ethyl)-thiazole]
accumulation of cyclic-GMP as compared with GTN [1]: increased levels of cGMP
tolerance induction in vitro (vasorelaxation, pre-treated versus control rings) [2]: absence of tolerance induction
activity as hypotensive agents (MAP) [4]: high activity

Cc1nc(N(C)C)sc1CCO[N+](=O)[O-] [Pet-7, Dimethyl-[4-methyl-5-(2-nitrooxy-ethyl)-thiazol-2-yl]-amine]
accumulation of cyclic-GMP as compared with GTN [1]: increased levels of cGMP
tolerance induction in vitro (vasorelaxation, pre-treated versus control rings) [2]: absence of tolerance induction
activity as hypotensive agents (MAP) [4]: high activity

Cc1nc(CCCCc2nc(C)c(CCO[N+](=O)[O-])s2)sc1CCO[N+](=O)[O-] [Pet-13]
activity as hypotensive agents (MAP) [4]: high activity

Cc1nc(N)sc1CCO[N+](=O)[O-] [Pet-10, 4-methyl-5-(2-nitrooxy-ethyl)-thiazole-2-ylamine]
accumulation of cyclic-GMP as compared with GTN [1]: increased levels of cGMP

CCNc1nc(C)c(CCO[N+](=O)[O-])s1 [Pet-147, Ethyl-[4-methyl-5-(2-nitrooxy-ethyl)-thiazol-2-yl]-amine]
accumulation of cyclic-GMP as compared with GTN [1]: increased levels of cGMP

Cc1nc(Nc2nc(C)c(CCO[N+](=O)[O-])s2)sc1CCO[N+](=O)[O-] [Pet-43, Bis-[4-methyl-5-(2-nitrooxy-ethyl)-thiazol-2-yl]-amine]
tolerance induction in vitro (vasorelaxation, pre-treated versus control rings) [2]: absence of tolerance induction
